The results in this text go back to patent US8304447B2, “2-acylaminopropoanol-type glucosylceramide synthase inhibitors” (Genzyme Corporation, priority 2007, dated 2012).

Structures are written as SMILES. Bounds are passed on as bounds.

The test system of the test is GM3. Put plainly: GM3 Elisa assay. The class given is cell-based. Particulars: Table 3 (IC 50 Values); B16-FO cells; read-out: IC50_uM_Mean. The method, boiled down:
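Cellular GM3 ELISA: fixed cells probed with monoclonal anti-GM3 (NeuAc), HRP-conjugated anti-IgM and fluorogenic Quantablu substrate, read at Ex 325/Em 420. Cells were B16-FO, treated 2 days after a 6 h attachment on collagen-coated wells.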
As to `COc1ccc(OCCC(=O)N[C@H](CN2CCCC2)[C@H](O)c2ccc(OC)c(F)c2)cc1` [Compound 341], the IC50 was not above 0.1 µM.
For `COc1ccc([C@@H](O)[C@@H](CN2CCCC2)NC(=O)Cc2ccc(OC(F)(F)F)cc2)cc1F` [Compound 342] the value was 0.1 to 1 µM; for `COc1ccc(C(=O)CCCC(=O)N[C@H](CN2CCCC2)[C@H](O)c2ccc(OC)c(F)c2)cc1` [Compound 343], 0.1 to 1 µM.
The figure for `COc1ccc(C(=O)CCCCC(=O)N[C@H](CN2CCCC2)[C@H](O)c2ccc(OC)c(F)c2)cc1` [Compound 344] is not above 0.1 µM; for `COc1ccc(C(=O)CCCCCC(=O)N[C@H](CN2CCCC2)[C@H](O)c2ccc(OC)c(F)c2)cc1` [Compound 345] it is not above 0.1 µM; for `COc1ccc(C(=O)CCCC(=O)N[C@H](CN2CCCC2)[C@H](O)c2ccc(C)c(F)c2)cc1` [Compound 346] it is 0.1 to 1 µM.
For `Cc1ccc([C@@H](O)[C@@H](CN2CCCC2)NC(=O)Cc2ccc(OC(F)(F)F)cc2)cc1F` [Compound 347] the value was 0.1 to 1 µM; for `CCCCCCCC(=O)N[C@H](CN1CCCC1)[C@H](O)c1ccc(C)c(F)c1` [Compound 348], 0.1 to 1 µM; for `COc1ccc(OCCC(=O)N[C@H](CN2CCCC2)[C@H](O)c2ccc(C)c(F)c2)cc1` [Compound 349], 0.1 to 1 µM.
For the molecule `COc1ccc(C(=O)CCCCCC(=O)N[C@H](CN2CCCC2)[C@H](O)c2ccc(C)c(F)c2)cc1` [Compound 350], the IC50 was not above 0.1 µM.
For `COc1ccc(C(=O)CCCCC(=O)N[C@H](CN2CCCC2)[C@H](O)c2ccc(C)c(F)c2)cc1` [Compound 351] the value was 0.1 to 1 µM; for `COc1ccc([C@@H](O)[C@@H](CO)NC(=O)OCc2ccccc2)c(OC)c1` [Compound 352], 3 to 10 µM.
Consider `COc1ccc(C(=O)CCCCC(=O)N[C@H](CN2CCCC2)[C@H](O)c2ccc(OC)cc2OC)cc1` [Compound 353], for which the IC50 fell in the range of 0.1 to 1 µM.
`COCCc1ccc([C@@H](O)[C@@H](CN2CCCC2)NC(=O)Cc2ccc(OC(F)(F)F)cc2)cc1` [Compound 354]: the IC50 fell in the range of 0.1 to 1 µM.
For `COCCc1ccc([C@@H](O)[C@@H](CN2CCCC2)NC(=O)CCCC(=O)c2ccc(OC)cc2)cc1` [Compound 355] the value was 1 to 3 µM; for `COCCc1ccc([C@@H](O)[C@@H](CN2CCCC2)NC(=O)CCOc2ccc(OC)cc2)cc1` [Compound 356], 1 to 3 µM; for `COCCc1ccc([C@@H](O)[C@@H](CN2CCCC2)NC(=O)CCCCC(=O)c2ccc(OC)cc2)cc1` [Compound 357], 0.1 to 1 µM.
The figure for `COc1ccc(C(=O)CCCCCC(=O)N[C@H](CN2CCCC2)[C@H](O)c2ccc(Cl)s2)cc1` [Compound 358] is not above 0.1 µM.
For `COc1ccc(C(=O)CCCC(=O)N[C@H](CN2CCCC2)[C@H](O)c2ccc(Cl)s2)cc1` [Compound 359] the value was 0.1 to 1 µM.
For `CCCCCCCC(=O)N[C@H](CN1CCCC1)[C@H](O)c1sccc1C` [Compound 360], the IC50 is 0.1 to 1 µM.
Take `COc1ccc(C(=O)CCCC(=O)N[C@H](CN2CCCC2)[C@H](O)c2sccc2C)cc1` [Compound 361]: the IC50 fell in the range of 3 to 10 µM.
For `COc1ccc(C(=O)CCCCC(=O)N[C@H](CN2CCCC2)[C@H](O)c2sccc2C)cc1` [Compound 362] the value was 3 to 10 µM; for `COc1ccc(OCCC(=O)N[C@H](CN2CCCC2)[C@H](O)c2sccc2C)cc1` [Compound 363], 0.1 to 1 µM; for `COc1ccc(C(=O)CCCCC(=O)N[C@H](CN2CCCC2)[C@H](O)c2ccc(OCCOc3ccc(C#N)cc3)cc2)cc1` [Compound 364], not above 0.1 µM.
For `COc1ccc(C(=O)CCCCC(=O)N[C@H](CN2CCCC2)[C@H](O)c2ccc(OCCOc3cccc(C(F)(F)F)c3)cc2)cc1` [Compound 365] the value was not above 0.1 µM; for `COc1ccc(C(=O)CCCCC(=O)N[C@H](CN2CCCC2)[C@H](O)c2ccc(OCCOc3ccccc3F)cc2)cc1` [Compound 366], not above 0.1 µM; for `COc1ccc(C(=O)CCCCC(=O)N[C@H](CN2CCCC2)[C@H](O)c2ccc(OCCCOc3ccccc3F)cc2)cc1` [Compound 367], not above 0.1 µM.
For `CCCCCCOc1ccc([C@@H](O)[C@@H](CN2CC[C@H](O)C2)NC(=O)CCCCC(=O)c2ccc(OC)cc2)cc1` [Compound 368] the value was not above 0.1 µM; for `CCCCCCOc1ccc([C@@H](O)[C@@H](CN2CC[C@@H](F)C2)NC(=O)CCCCC(=O)c2ccc(OC)cc2)cc1` [Compound 369], not above 0.1 µM.
For the molecule `CCCCCCOc1ccc([C@@H](O)[C@@H](CN2C3CCC2CC3)NC(=O)CCCCC(=O)c2ccc(OC)cc2)cc1` [Compound 370], the IC50 is not above 0.1 µM.
The figure for `CCCCCCOc1ccc([C@@H](O)[C@@H](CN2CC[C@@H](F)C2)NC(=O)CCCCCC(=O)c2ccc(OC)cc2)cc1` [Compound 371] is not above 0.1 µM; for `CCCCCCOc1ccc([C@@H](O)[C@@H](CN2CC[C@H](O)C2)NC(=O)CCCCCC(=O)c2ccc(OC)cc2)cc1` [Compound 372] it is not above 0.1 µM.
Take `COc1ccc(C(=O)CCCCC(=O)N[C@H](CN2CCCC2)[C@H](O)c2ccc(OCCOc3c(C)cccc3C)cc2)cc1` [Compound 373]: the IC50 is not above 0.1 µM.
The figure for `CCCCCCOc1ccc([C@@H](O)[C@@H](CN2C3CCC2CC3)NC(=O)CCCCCC(=O)c2ccc(OC)cc2)cc1` [Compound 374] is not above 0.1 µM.
For `COc1ccc(C(=O)CCCCC(=O)N[C@H](CN2CC[C@H](O)C2)[C@H](O)c2ccc(OC(C)C)cc2)cc1` [Compound 375], the IC50 was in the range of 0.1 to 1 µM.
The figure for `COc1ccc(C(=O)CCCCC(=O)N[C@H](CN2C3CCC2CC3)[C@H](O)c2ccc(OC(C)C)cc2)cc1` [Compound 376] is not above 0.1 µM; for `COc1ccc(C(=O)CCCCCC(=O)N[C@H](CN2C3CCC2CC3)[C@H](O)c2ccc(OC(C)C)cc2)cc1` [Compound 377] it is not above 0.1 µM; for `COc1ccc(C(=O)CCC(=O)CCC(=O)N[C@H](CN2CCCC2)[C@H](O)c2ccc3c(c2)OCCO3)cc1` [Compound 378] it is not above 0.1 µM.
The figure for `O=C(N[C@H](CN1CCCC1)[C@H](O)c1ccc(Cl)cc1)OCc1ccccc1` [Compound 379] is 0.1 to 1 µM; for `COc1ccc(C(=O)CCCCCC(=O)N[C@H](CN2CCCC2)[C@H](O)c2ccc(Cl)cc2)cc1` [Compound 380] it is not above 0.1 µM.
`O=C(Cc1ccc(OC(F)(F)F)cc1)N[C@H](CN1CCCC1)[C@H](O)c1ccc(Cl)cc1` [Compound 381]: the IC50 was 1 to 3 µM.
For `COc1ccc(OCCC(=O)N[C@H](CN2CCCC2)[C@H](O)c2ccc(Cl)cc2)cc1` [Compound 382], the IC50 was in the range of 0.1 to 1 µM.
Take `COc1ccc(C(=O)CCCC(=O)N[C@H](CN2CCCC2)[C@H](O)c2ccc(Cl)cc2)cc1` [Compound 383]: the IC50 lay within 0.1 to 1 µM.
With `COc1ccc(C(=O)CCCCC(=O)N[C@H](CN2CCCC2)[C@H](O)c2ccc(Cl)cc2)cc1` [Compound 384], the IC50 was 0.1 to 1 µM.
The figure for `CCCCCCCC(=O)N[C@H](CN1CCCC1)[C@H](O)c1ccc(Cl)cc1` [Compound 385] is 1 to 3 µM.
With `COc1ccc(C(=O)CCCC(=O)N[C@H](CN2CCCC2)[C@H](O)c2ccc(OC)c(C)c2)cc1` [Compound 386], the IC50 was in the range of 0.1 to 1 µM.
In the case of `COc1ccc(C(=O)CCCCC(=O)N[C@H](CN2CCCC2)[C@H](O)c2ccc(OC)c(C)c2)cc1` [Compound 387], the IC50 was in the range of 0.1 to 1 µM.
For the molecule `CCCCCCCC(=O)N[C@H](CN1CCCC1)[C@H](O)c1ccc(OC)c(C)c1` [Compound 388], the IC50 was not above 0.1 µM.
Take `COc1ccc([C@@H](O)[C@@H](CN2CCCC2)NC(=O)Cc2ccc(OC(F)(F)F)cc2)cc1C` [Compound 389]: the IC50 was not above 0.1 µM.
Take `COc1ccc(C(=O)CCCCCC(=O)N[C@H](CN2CCCC2)[C@H](O)c2ccc(OC)c(C)c2)cc1` [Compound 390]: the IC50 was not above 0.1 µM.
The figure for `COc1ccc(OCCC(=O)N[C@H](CN2CCCC2)[C@H](O)c2ccc(OC)c(C)c2)cc1` [Compound 391] is 0.1 to 1 µM; for `O=C(Cc1ccc(OC(F)(F)F)cc1)N[C@H](CN1CCCC1)[C@H](O)/C=C/c1ccccc1` [Compound 392] it is 3 to 10 µM; for `COc1ccc(C(=O)CCCC(=O)N[C@H](CN2CCCC2)[C@H](O)/C=C/c2ccccc2)cc1` [Compound 393] it is 3 to 10 µM.
The figure for `COc1ccc(C(=O)CCCCCC(=O)N[C@H](CN2CCCC2)[C@H](O)/C=C/c2ccccc2)cc1` [Compound 394] is 1 to 3 µM.
Regarding `COc1ccc(C(=O)CCCCC(=O)N[C@H](CN2CCCC2)[C@H](O)/C=C/c2ccccc2)cc1` [Compound 395], the IC50 lay within 3 to 10 µM.
For the molecule `COc1ccc(OCCC(=O)N[C@H](CN2CCCC2)[C@H](O)/C=C/c2ccccc2)cc1` [Compound 396], the IC50 fell in the range of 3 to 10 µM.
With `CCCCCCCC(=O)N[C@H](CN1CCCC1)[C@H](O)/C=C/c1ccccc1` [Compound 397], the IC50 was in the range of 3 to 10 µM.
`O=C(Cc1ccc(OC(F)(F)F)cc1)N[C@H](CN1CCCC1)[C@H](O)c1ccc2c(c1)OC(F)(F)C(F)(F)O2` [Compound 398]: the IC50 was in the range of 3 to 10 µM.
With `O=C(N[C@H](CN1CCCC1)[C@H](O)c1ccc2c(c1)OC(F)(F)C(F)(F)O2)OCc1ccccc1` [Compound 399], the IC50 fell in the range of 1 to 3 µM.
For `CCCCCCCC(=O)N[C@H](CN1CCCC1)[C@H](O)c1ccc2c(c1)OC(F)(F)C(F)(F)O2` [Compound 400] the value was 3 to 10 µM; for `COc1ccc(C(=O)CCCCCC(=O)N[C@H](CN2CCCC2)[C@H](O)c2ccc3c(c2)OC(F)(F)C(F)(F)O3)cc1` [Compound 401], 0.1 to 1 µM; for `COc1ccc(OCCC(=O)N[C@H](CN2CCCC2)[C@H](O)c2ccc3c(c2)OC(F)(F)C(F)(F)O3)cc1` [Compound 402], 3 to 10 µM.
For `COc1ccc(C(=O)CCCCC(=O)N[C@H](CN2CCCC2)[C@H](O)c2ccc3c(c2)OC(F)(F)C(F)(F)O3)cc1` [Compound 403] the value was 1 to 3 µM; for `O=C(N[C@H](CN1CCCC1)[C@H](O)c1ccc2c(c1)OC(F)(F)O2)OCc1ccccc1` [Compound 404], 3 to 10 µM.
